The numbers were not newly measured in US8986935B2, “Methods for treating spinal muscular atrophy” (PTC Therapeutics, Inc., priority 2008, dated 2015), which cites them from elsewhere.

Molecules are shown by their SMILES.

This data set has as its system SMN protein.

As for `CC[C@@]1(O)C[C@H](O[C@H]2C[C@H](N(C)C)[C@H](O[C@H]3C[C@H](O)[C@H](O[C@H]4CCC(=O)[C@H](C)O4)[C@H](C)O3)[C@H](C)O2)c2c(cc3c(c2O)C(=O)c2c(O)cccc2C3=O)[C@H]1C(=O)OC` [aclarubicin], the “SMN protein in cell culture” value is given as “increase SMN protein”.
